{"source": "patent US20240316008A1", "about": "“TREATMENT OF SYSTEMIC IMMUNE ACTIVATION SYNDROMES” (TRANQUIS THERAPEUTICS, INC., priority 2020, published 2024)", "key": {"[1]": {"tested_on": "12 human primary cell-based systems", "assay": "Eurofins BioMAP Diversity PLUS panel", "description": "TQS-168 was characterized in the Eurofins BioMAP Diversity PLUS panel of 12 human primary cell-based systems (FIG. 12). These systems are designed to model complex human tissue and disease biology of the vasculature, skin (fibrosis), pulmonary and immune systems and provide test agent characterization in an unbiased way across a broad set of systems modeling various human disease states. Quantitative measurements of biomarker activities across this broad panel, along with comparative analysis of the biological activities of known bioactive agents in the BioMAP reference database were used to predict the safety, efficacy and function of TQS-168. A BioMAP profile in the Diversity PLUS Panel was performed for TQS-168 at concentrations of 20 μM, 6.7 μM, 2.2 μM, and 740 nM. The Y-axis represents a log-transformed ratio of the biomarker readouts for the test agent-treated sample (n=1) over vehicle controls (average of ≥6 vehicle controls from the same plate). The grey region around the Y-axis represents the 95% significance envelope that was generated from the upper and lower bound values of historical vehicle controls. Biomarker activities were annotated when two or more consecutive concentrations change in the same direction relative to vehicle controls, were outside of the significance envelope, and have at least one concentration with an effect size >20% (|log10 ratio|>0.1). Biomarker key activities were described as modulated if these activities increase in some systems, but decreased in others."}, "sepsis": {"tested_on": "sepsis", "assay": "Mouse model of sepsis / hyperinflammation (virus followed by LPS, as described in Wang)", "details": "mice, intravenous, various doses", "procedure": "Briefly, mice are anesthetized with a ketamine/xylazine mixture. A virus, such as a coronavirus, influenza virus, rhinovirus, respiratory syncytial virus, metapneumovirus, adenovirus, or a boca virus, is administered. The virus may be administered intranasally dropwise.\nNext, LPS diluted in a buffer, such as PBS, is injected intraperitoneally at specific doses.\nTo provide comparators for assessing the effects of TQS-168 and its analogs, groups of positive control mice are treated with one or more antibodies against pro-inflammatory cytokines of interest: anti-NK1.1 antibody (PK136; Bio X Cell) diluted in PBS is injected at 100 μg per injection (100 μL) retro-orbitally concurrently with each challenge; anti-IFNγ antibody (XMG1.2, Bio X Cell) is diluted in PBS and injected at 500 μg per injection (100 μL) retro-orbitally concurrently with each challenge; anti-IL6R (15A7.10 mg/kg; Bio X Cell), anti-TNFα (XT3.11, 500 μg per injection; Bio X Cell), anti-IFNαR (MAR1-5A3, 10 mg/kg; Bio X Cell), and anti-IL1β (B122, 500 μg per injection; Bio X Cell) are injected retro-orbitally. For a negative control, isotype antibody is injected retro-orbitally.\nThe pro-inflammatory cytokines can be measured using the ELISA assay described in Example 1."}, "[2]": {"tested_on": "neurodegenerative diseases", "details": "murine models of Parkinson's disease, Alzheimer's disease, ALS; cited from earlier work"}, "PGC-1α": {"tested_on": "PGC-1α", "assay": "PGC-1α protein expression in BV2 microglia cells (Western blot)", "format": "cell-based, murine", "details": "24 hours", "description": "Frozen BV2 murine microglia cells were thawed and propagated in complete media (RPMI, 10% heat-inactivated FBS, 1% L-glutamine, 1% Pen-Strep) until the growth rate reached log phase. For protein expression analysis, DMSO (1:1000 final dilution) or TQS-168 in DMSO (1:1000 final dilution) at 20 μM was added to cell cultures. After 24 hours stimulation, supernatant was discarded and cell lysis buffer (Cell Signal) was added to adherent cells to extract protein. Total protein was quantified and normalized across all samples by BCA assays. Two replicates of untreated cultures and three replicates of TQS-168-treated cultures were investigated, with each replicate containing lysates from 5,000,000 BV2 myeloid cells. PGC1α expression was detected by Western Blot using an anti-PGC-1α antibody (SC13067, Santa Cruz Biotechnology, 1:500 dilution). Anti-β-actin antibody (SC8432, Santa Cruz Biotechnology, 1:2000 dilution) was used to quantify beta-actin, a housekeeping gene whose expression level is not know to be affected by TQS-168. […] Total protein was quantified and normalized across all samples by BCA assays. PGC-1α was subsequently detected by Western Blot using an anti-PGC-1α antibody (SC13067, Santa Cruz Biotechnology, 1:500 dilution). β-actin was detected with an anti-β-actin antibody (SC8432, Santa Cruz Biotechnology, 1:2000 dilution). […]"}, "TNFα": {"tested_on": "TNFα", "assay": "TNFα secretion from LPS-stimulated BV2 cells (CBA assay)", "format": "cell-based, murine", "details": "100 ng/ml LPS, 24 hours; for TNFα production by LPS-stimulated BV-2 myeloid cells: compared to control", "description": "LPS was used to induce cytokine secretion from BV-2 cells. Cells were incubated with TQS-168 at various concentrations to assess whether TQS-168 could suppress the LPS-promoted release of various cytokines from in vitro cell cultures. Cytokine secretion was measured by cytometric bead array (CBA) fluorescence-activated cell sorting (FACS).\nBriefly, a vial of BV2 frozen stock (1 million cells per ml in complete medium) was thawed into 10 mL of complete medium per vial for a total of 4 vials. The vials were then centrifuged at 1800 rpm for 3 minutes to wash away freezing media. The four vials were then pooled into 25 mL of complete medium. TQS-168 was prepared in DMSO.\nCells were incubated for 24 hours in the presence of medium (negative control), LPS (positive control), DMSO+LPS (positive control, controlling additionally for presence of DMSO in the TQS-168 stock solution), or LPS+TQS-168 at final concentrations of 1 μM, 5 μM, 10 μM, and 20 μM.\nAfter the well plates were incubated overnight for 24 hours, they were centrifuged at 1800 rpm for 5 minutes. Next, 150 μl from each well was transferred to a new set of plates, of which 50 μl was used for CBA. The plates were then centrifuged with the cells, followed by addition of 100 μl of DAPI (50 ml of PBS+10 μl of DAPI stock at 1:5000 dilution). The plates were then incubated in the dark for 5 minutes, followed by addition of 100 μl of PBS and centrifuged at 1800 rpm for 5 minutes. Finally, the plates were resuspended in 200 μl of PBS and tested.\nMultiplexed cytometric bead array (CBA) assay was performed according to standard techniques to detect presence in the cell culture medium of secreted murine TNFα, IL-6, IFNγ, IL-12, monocyte chemoattractant protein 1 (MCP-1), and IL-10.\nA total of 4-11 replicates of BV2 cultures in different conditions were investigated. Frozen BV2 microglia cell line was thawed and propagated in complete media (RPMI, 10% heat inactivated FBS, 1% L-glutamine, 1% Pen-Strep) until growth rate reached log phase.\nCells were stimulated with 100 ng/ml of LPS for 24 hours. […]"}, "[3]": {"details": "profile at 20 μM, 6.7 μM, 2.2 μM, 740 nM"}}, "data": [{"molecule": "CC(C)(C)c1ccc(-c2nc3ccccc3[nH]2)cc1", "note": "[TQS-168, 2-(4-tert-butylphenyl)-1H-benzimidazole]", "values": [{"measurement": "T-cell proliferation, IgG, TNFα, and IL-8", "setting": "[1]; 6.7 μM", "value": "inhibit"}, {"measurement": "decrease in sIgG and sTNFα in B and T cells as compared to metformin hydrochloride at 5000 μM", "setting": "[1]; 6.7 μM", "value": "greater decrease"}, {"measurement": "decrease in sIgG, sIL-17A, sIL-17F, sIL-2, sTNFα, sIL-6 from B and T cells", "setting": "[1]; 20 μM, highest concentration of the profile", "value": "greatest decrease"}, {"measurement": "inflammatory markers Eotaxin-3, P-selectin, IL-8, PGE2, IP-10", "setting": "[1]; [3]", "value": "decreased"}, {"measurement": "proliferation of endothelial, B cells, T cells, coronary artery SMC & fibroblasts", "setting": "[1]; [3]", "value": "anti-proliferative"}, {"measurement": "tissue remodeling markers uPAR, MMP1, tPA, alpha-SMA, Collagen III", "setting": "[1]; [3]", "value": "modulated"}, {"measurement": "circulating concentrations of pro-inflammatory cytokines", "setting": "sepsis", "value": "effective in reducing"}, {"measurement": "hyperinflammatory symptoms", "setting": "sepsis", "value": "effective in reducing"}, {"measurement": "disease severity", "setting": "[2]", "value": "reduce"}, {"measurement": "myeloid-mediated inflammation", "setting": "[2]", "value": "suppress"}, {"measurement": "PGC-1α protein expression", "setting": "PGC-1α; BV2 cells, concentrations ranging from 0.7 μM to 20 μM", "value": "induces"}, {"measurement": "PGC-1α protein expression", "setting": "PGC-1α; BV2 microglia cells, 20 μM, Western blot", "value": "induces"}, {"measurement": "TNFα production by LPS-stimulated BV-2 myeloid cells", "setting": "TNFα; 5 μM", "value": "suppress"}, {"measurement": "TNFα production by LPS-stimulated BV-2 myeloid cells", "setting": "TNFα; 20 μM", "value": "suppress"}, {"measurement": "LPS-induced secretion of TNFα", "setting": "TNFα; BV2 cells, 1 μM-20 μM", "value": "reduce"}]}]}
